From patent US20190125669A1, “SYSTEMS AND METHODS FOR STEROIDAL GELS” (Children's Medical Center Corporation, priority 2016, published 2019)
Entries after “also recorded” stand apart in the source; their conditions may differ. Where a name gives a salt, the structure may show the parent alone.

Assays:
[1] = Gelation of steroid drugs and alkaline-earth metal ion; assay type: physicochemical; design: key: L indicates that a liquid was formed; P indicates that a precipitate was formed; H indicates that a hydrogel was formed; L/H indicates that a mixture of a hydrogel and a liquid was formed; P->H indicates that a precipitate formed initially which converted to a hydrogel overnight; conditions: molar ratio steroid drug:metal ion 1:1
Description: The molar ratio of the steroid drug to the alkaline earth metal ion was 1:1 for all of the above samples.
Preparation of hydrogel. […] To form the DexP-hydrogel containing bupivacaine chlorhydrate (BPV), a DexP aqueous solution (100 mM) was added to a mixture of bupivacaine (10 mg/mL; approx. 30.8 mM) and Ca^2+ (100 mM) in a volume ratio of 1:2:1.

sciatic nerve = test: Sciatic nerve blockade, sensory (modified hotplate test); assay type: in vivo, rats; conditions: 0.3 mL at the sciatic nerve; bupivacaine 5 mg/mL (15.4 mM); DexP 25 mM where present; mean+/−SD
Description: Sciatic nerve blockade. Under brief isoflurane-oxygen anesthesia, the animals were injected with 0.3 mL of test material using a 23 G needle, which was introduced postero-medial to the greater trochanter until contact with bone.
Sensory nerve block was assessed by a modified hotplate test, as reported previously. The plantar surface of the rat's hind paw was placed on a pre-heated hot plate at 56° C. The time (termed thermal latency) that the animal would leave its hindpaw on the hotplate was recorded. Longer latencies reflected deeper degrees of local anesthesia. Pristine animals have latencies of about 2 s. After 12 s, the hindpaw was removed from the hotplate by the investigator to avoid tissue thermal injury or the development of hyperalgesia. Measurements were repeated 3 times at each timepoint. The duration of block was calculated as the time required for thermal latency to return to a value of 7 s from a higher value; 7 s is the midpoint between a baseline thermal latency of 2 seconds in adult rats, and a maximal latency of 12 s.

[2] = test system: sciatic nerve and surrounding tissues; test: Histology: myotoxicity and inflammation scores; assay type: in vivo, rats; conditions: for Inflammation (range 0-4) / Myotoxicity (range 0-6): median with 25th and 75th percentiles, bupivacaine 5.0 mg/mL
Source text: 4 or 14 days after injection (n=6 at each time point), the sciatic nerve and surrounding tissues were harvested and processed for histology by hematoxylin-eosin staining (FIG. 6, Table 2). Overall, tissue reaction to all formulations was relatively benign.
Histology. Rats were euthanized by carbon dioxide 4 days or 14 days after injection. The nerve and surrounding tissue were harvested and underwent standard procedures to produce hematoxylin and eosin-stained slides. The samples were scored for inflammation (0-4) and myotoxicity (0-6). The inflammation score was a subjective quantification of severity, where 0 was normal and 4 was severe inflammation. The myotoxicity score was determined by the nuclear internalization and regeneration of myocytes, two representative characteristics of local anesthetics myotoxicity. Nuclear internalization was characterized by myocytes having nuclei located away from its usual location at the periphery of the cell. Regeneration was characterized by the presence of shrunken myocytes with basophilic cytoplasm. The scoring scale was as follows: 0=normal; 1=per fascicular internalization; 2=deep internalization (>5 cell layers); 3=perifascicular regeneration; 4=deep tissue regeneration (>5 cell layers); 5=hemefascicular regeneration; 6=holofascicular regeneration.

C2C12 cells = test: Cell viability (MTS assay, Transwell); assay type: cell-based; conditions: 24 h exposure, hydrogels [DexP]=25 mM
Description: The cytotoxicity of DexP-hydrogels ([DexP]:[Ca^2+]=2:1, 1:1, or 2:3), and free DexP were assessed by exposing C2C12 cells to them for 24 h in a Transwell® system where the gels were separated from the cells by a permeable membrane (FIG. 12) and measuring cell viability by MTS (3-(4,5-dimethylthiazol-2-yl)-5-(3-carboxymethoxyphenyl)-2-(4-sulfophenyl)-2H-tetrazolium) assay. […] The concentration of free DexP in the cell culture media incubated with the DexP-hydrogel ([DexP]:[Ca^2+]=2:1) for 24 h was 2.5 mg/mL (calculated from the release profile in FIG. 3), and the reduction of cell viability in that group was similar to that from 2.5 mg/mL of free DexP (p=0.31, p<0.005 compared to untreated cells). 25 mM DexP-hydrogels with the ratio [DexP]:[Ca^2+]=1:1 were used in subsequent experiments.
Cell viability. In vitro cell viability in the presence of DexP hydrogels was investigated in C2C12 cells (American Type Culture Collection, Manassas, Va.). In brief, C2C12 cells were grown and maintained in DMEM with 20% FBS and 1% Penicillin Streptomycin (Invitrogen, Waltham, Mass.) at 37° C. in 5% CO2. Cells were seeded into the lower chamber of 24-well Transwell® plates (Costar 3470, pore size 0.4 micrometers, Corning Incorporated, Corning, N.Y.) at 50,000 cells/mL in DMEM with 2% horse serum and 1% penicillin streptomycin and incubated for 14 days to allow differentiation into myotubes. […]

Gelation ([1]; Ba^2+ concentration 2.5) | Gelation ([1]; Ba^2+ concentration 6.25) | Gelation ([1]; Ba^2+ concentration 12.5) | Gelation ([1]; Ba^2+ concentration 25) | Gelation ([1]; Ca^2+ concentration 2.5) | Gelation ([1]; Ca^2+ concentration 6.25) | Gelation ([1]; Ca^2+ concentration 12.5) | Gelation ([1]; Ca^2+ concentration 25) | Compound | Duration of sensory blockade (sciatic nerve) | Inflammation (range 0-4) ([2]; 4 days) | Myotoxicity (range 0-6) ([2]; 4 days) | Inflammation (range 0-4) ([2]; 14 days) | Myotoxicity (range 0-6) ([2]; 14 days) | Tissue reaction (histology, H&E) ([2]; day 4 after injection at the sciatic nerve, listed as free bupivacaine solution, hydrochloride) | Tissue reaction (histology, H&E) ([2]; day 14 after injection at the sciatic nerve) | Cell viability / cytotoxicity (C2C12 cells)
L | L | P−>H | P−>H | L/H | L/H | H | H | C[C@H]1C[C@H]2[C@@H]3CCC4=CC(=O)C=C[C@]4(C)[C@@]3(F)[C@@H](O)C[C@]2(C)[C@@]1(O)C(=O)COP(=O)(O)O [Betamethasone phosphate, betamethasone phosphate disodium] | – | – | – | – | – | – | – | –
– | – | – | – | – | – | – | – | CCCCN1CCCCC1C(=O)Nc1c(C)cccc1C (centres unmarked) [Bupivacaine solution, bupivacaine hydrochloride] | 126 ± 38 min | 2.0 (1.0-2.5) | 3.0 (3.0-3.75) | 1.0 (0.5-1.0) | 1.0 (0.5-1.0) | inflammatory infiltrate consisting primarily of macrophages with lymphocytes and occasional neutrophils; also recorded: evidence of myotoxicity | diminished compared to reaction at day 4, almost back to normal | –
L | L | P−>H | P−>H | L/H | L/H | H | H | C[C@@H]1C[C@H]2[C@@H]3CCC4=CC(=O)C=C[C@]4(C)[C@@]3(F)[C@@H](O)C[C@]2(C)[C@@]1(O)C(=O)COP(=O)(O)O [Dexamethasone phosphate, dexamethasone phosphate disodium] | – | – | – | – | – | – | – | concentration-dependent reduction of cell viability
L | L | P−>H | P−>H | L/H | L/H | H | H | hydrocortisone phosphate disodium | – | – | – | – | – | – | – | –
